Results: the supplement of paper PMC10307832

Compound: COc1ccc(-c2ccc3c(N4CCOC[C@@H]4C)nc(N4CCOC[C@@H]4C)nc3n2)cc1CO [AZD8055]
Assay: relative viability (nuclei count vs DMSO), 5 days (fraction); higher = more cells survive
Summary of the method: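 MetaXpress counted nuclei in 4× images of lung cancer cell lines that had been fixed, permeabilised and Hoechst-stained in one step. Before that, cells in 1536-well plates were kept overnight at 37 °C, pinned with five √10-spaced library-drug doses on vehicle-anchored plates, and cultured 5 days without medium change. Viability takes treated-well nuclei over vehicle-well nuclei and uses the median across plates. Plates were accepted only at control CV below 25% and at least one doubling.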

Row | Cell Line | relative viability (0.01 µM) | relative viability (0.03162 µM) | relative viability (0.1 µM) | relative viability (0.3162 µM) | relative viability (1 µM)
1 | HOP-62 | 1.09 | 0.922 | 1.08 | 0.639 | 0.54
2 | NCI-H1915 | 1.01 | 0.81 | 0.959 | 0.63 | 0.513
3 | NCI-H3122 | 1.06 | 1.11 | 0.846 | 0.457 | 0.311
4 | NCI-H1651 | 1.08 | 0.847 | 0.871 | 0.61 | 0.389
5 | EBC-1 | 1.11 | 0.828 | 0.609 | 0.244 | 0.205
6 | NCI-H838 | 1.05 | 0.676 | 0.442 | 0.322 | 0.339
7 | NCI-H596 | 0.953 | 0.762 | 0.683 | 0.469 | 0.406
8 | SK-LU-1 | 1.05 | 0.82 | 0.628 | 0.388 | 0.366
9 | NCI-H441 | 1.06 | 0.929 | 0.695 | 0.427 | 0.387
10 | NCI-H650 | 0.984 | 0.809 | 0.738 | 0.427 | 0.303
11 | SK-MES-1 | 0.967 | 0.892 | 0.809 | 0.408 | 0.289
12 | NCI-H1792 | 0.951 | 0.612 | 0.325 | 0.171 | 0.216
13 | NCI-H1355 | 0.889 | 0.865 | 0.578 | 0.303 | 0.261
14 | SW 1573 | 1.05 | 0.751 | 0.704 | 0.326 | 0.203
15 | A549 | 1 | 0.83 | 0.639 | 0.19 | 0.106
16 | NCI-H2347 | 1.14 | 0.942 | 0.911 | 0.5 | 0.48
17 | LCLC-97TM1 | 1.04 | 0.822 | 0.453 | 0.246 | 0.205
18 | EMC-BAC-2 | 0.992 | 0.784 | 0.698 | 0.356 | 0.336
19 | NCI-H1975 | 1.05 | 0.812 | 0.55 | 0.347 | 0.283

Row | Cell Line | relative viability (0.01 µM) | relative viability (0.03162 µM) | relative viability (0.1 µM) | relative viability (0.3162 µM) | relative viability (1 µM)
20 | BEN | 0.901 | 0.6 | 0.53 | 0.358 | 0.325
21 | NCI-H1703 | 0.822 | 0.715 | 0.634 | 0.265 | 0.332
22 | NCI-H23 | 1.09 | 0.804 | 0.662 | 0.371 | 0.373
23 | NCI-H520 | 0.904 | 0.441 | 0.373 | 0.19 | 0.178
24 | CAL-12T | 1.06 | 0.995 | 0.7 | 0.322 | 0.274
25 | EPLC-272H | 0.807 | 0.73 | 0.47 | 0.356 | 0.358
26 | LCLC-103H | 0.945 | 0.86 | 0.86 | 0.609 | 0.519
27 | NCI-H2405 | 0.999 | 1 | 0.797 | 0.406 | 0.407
28 | HCC-15 | 1.09 | 1.03 | 0.883 | 0.53 | 0.351
29 | PC-3 [JPC-3] | 1.08 | 1.11 | 0.931 | 0.957 | 0.609
30 | NCI-H1944 | 1.01 | 0.786 | 0.673 | 0.335 | 0.316
31 | HARA | 1.11 | 1.06 | 0.774 | 0.563 | 0.304
32 | NCI-H1563 | 0.844 | 0.791 | 0.719 | 0.604 | 0.684
33 | NCI-H2126 | 0.973 | 0.926 | 0.743 | 0.515 | 0.418
34 | LXF-289 | 1.07 | 1.05 | 1.01 | 0.909 | 0.768
35 | NCI-H460 | 1.13 | 0.995 | 0.798 | 0.416 | 0.264
36 | NCI-H1395 | 0.869 | 0.648 | 0.739 | 0.488 | 0.427
37 | NCI-H2170 | 1.01 | 0.881 | 0.735 | 0.365 | 0.345
38 | NCI-H2009 | 1.03 | 0.918 | 0.924 | 0.501 | 0.344
